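Where inhibition never reached the appropriate level, the endpoint shown equals the highest concentration tested. Otherwise, values were interpolated linearly from a five-concentration, 48-hour dose response in 96-well plates. GI50 is the concentration that inhibits growth by half. TGI is the concentration that stops growth completely.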
What was measured:
Assay in all cases: growth of human tumour cells (NCI), 48 h
[1] = tested on: M14 melanoma
[2] = tested on: K-562 leukemia
[3] = tested on: HCC-2998 colon
[4] = tested on: U251 CNS
[5] = tested on: T-47D breast
[6] = tested on: CAKI-1 renal
[7] = tested on: SK-OV-3 ovarian
[8] = tested on: IGROV1 ovarian
[9] = tested on: UACC-257 melanoma
[10] = tested on: OVCAR-8 ovarian

Row | Compound | TGI [1] [µM] | TGI [2] [µM] | TGI [3] [µM] | TGI [4] [µM] | TGI [5] [µM] | TGI [6] [µM] | TGI [7] [µM] | TGI [8] [µM] | TGI [9] [µM] | TGI [10] [µM] | GI50 [1] [µM] | GI50 [2] [µM] | GI50 [3] [µM] | GI50 [4] [µM] | GI50 [5] [µM] | GI50 [6] [µM] | GI50 [7] [µM] | GI50 [8] [µM] | GI50 [9] [µM] | GI50 [10] [µM]
1 | C=C(C)COC1CCCCO1 (stereo not given) | > 100 | > 100 | > 100 | > 100 | > 100 | > 100 | > 100 | > 100 | > 100 | > 100 |  |  |  |  |  |  |  |  |  | 
2 | CCOC(=O)C(NC(=O)c1ccccc1)(N1CCN(c2cc3c(cc2F)c(=O)c(C(=O)O)cn3CC)CC1)C(F)(F)F (stereo not given) | > 100 | > 100 | > 100 | > 100 | 88.6 | 48.4 | 79.5 | > 100 | 44.7 | 47.3 |  |  |  |  |  |  |  |  |  | 
3 | O=C1C(Cl)=C(N(C(=O)c2ccccc2)C(=O)c2ccccc2)C(=O)c2ccccc21 | > 100 | 20.6 | 37.4 | > 100 | 32.3 | 23.3 | > 100 | > 100 | 28.7 | > 100 |  |  |  |  |  |  |  |  |  | 
4 | C=C1CC(Cn2ccc(=O)[nH]c2=O)(c2ccc(Cl)cc2)OC1=O (stereo not given) | 12.9 | 5.38 | 31.2 | 31.7 | 12.1 | 6.77 | 28.3 | 9.98 | 12.4 | 24.5 |  |  |  |  |  |  |  |  |  | 
5 | O=C1CC[C@@]2(O)[C@H]3Cc4ccc(-c5ccccc5)c5c4[C@@]2(CCN3CC2CC2)[C@H]1O5 | 34 | 63.7 | 33.8 | 32.1 | 35.7 | 36.7 | 54 | > 100 | 31.3 | 32.4 |  |  |  |  |  |  |  |  |  | 
6 | O=C(/C=C(\S/C=C(/c1ccccc1)N1CCn2c(C(=O)c3ccccc3)c(C(=O)c3ccccc3)c(C(=O)c3ccccc3)c21)C(=O)c1ccccc1)c1ccccc1 | > 10 | > 10 | > 10 | > 10 | > 10 | > 10 | > 10 | > 10 | > 10 | > 10 |  |  |  |  |  |  |  |  |  | 
7 | Cc1cc(=O)n2nc(CCl)sc2n1 | 23.4 | 37.7 | 31.1 | 20.3 | 32.3 | 23.1 | 53.2 | 37 | 25.2 | 35.5 |  |  |  |  |  |  |  |  |  | 
8 | CC(C)=CCc1[nH]c2ccccc2c1C1=C(O)C(=O)C(c2c(CC=C(C)C)[nH]c3ccccc23)=C(O)C1=O | 15.6 | 6.31 | 3.29 | 6.52 | 25 | 6.26 | 4.13 | 3.45 | 6.95 | 7.78 |  |  |  |  |  |  |  |  |  | 
9 | CCCCCCCCCCCC[C@@H](O)[C@H]1CCC([C@H](O)CCCCC(=O)CCCCCCCC2=C[C@H](C)OC2=O)O1 (stereo not given in full) | > 35.8 | > 50 | > 50 | > 50 | > 50 | > 50 | > 50 | > 50 | > 50 | > 50 |  |  |  |  |  |  |  |  |  | 
10 | COC1=CC2(CC(OC)=C1OC)OC21COc2ccccc2C1=O (stereo not given) | > 100 | > 100 | > 100 | > 100 | > 100 | > 100 | > 100 | > 100 | > 100 | > 100 |  |  |  |  |  |  |  |  |  | 
11 | Cc1cc(S(=O)(=O)Nc2nnc3cnc4ccccc4n23)c(S)cc1Cl | > 100 | > 100 | > 100 | > 100 | > 100 | > 100 | > 100 | > 100 | > 100 | > 100 |  |  |  |  |  |  |  |  |  | 
12 | O=C(NC(=O)c1cc(-c2ccccc2)n[nH]1)c1ccccc1 | > 100 | > 100 | > 100 | > 100 | > 100 | > 100 | > 100 | > 100 | > 100 | > 100 |  |  |  |  |  |  |  |  |  | 
13 | NCC(O)CNC(=O)c1ccc(-c2ccc(-c3ccc(C(=O)NCC(O)CN)cc3)o2)cc1 (stereo not given) | > 100 | > 100 | 96.5 | 42.6 | 92.6 | > 100 | 58 | > 100 | > 100 | > 100 |  |  |  |  |  |  |  |  |  | 
14 | COC1=CC(=O)CC(C)C12Oc1c(Cl)c(OC)cc(OC)c1C2=O (stereo not given) | > 65.7 | > 66.4 | > 100 | > 100 | > 100 | 84.9 | > 100 | > 100 | > 100 | > 100 |  |  |  |  |  |  |  |  |  | 
15 | COc1ccc(N=NC(=O)NC(CC(C)C)C(N)=O)cc1 (stereo not given) | > 100 | > 100 | > 31.6 | > 100 | > 100 | > 31.6 | > 100 | > 100 | > 31.6 | > 100 |  |  |  |  |  |  |  |  |  | 
16 | COC(=O)c1c(O)ccc2[nH]c3c(O)c4ccccc4cc3c12 | 67.4 | > 100 | 32.8 | > 100 | 36.6 | 45.9 | 90 | 43.5 | 94.5 | 48.9 |  |  |  |  |  |  |  |  |  | 

Row | Compound | TGI [1] [µM] | TGI [2] [µM] | TGI [3] [µM] | TGI [4] [µM] | TGI [5] [µM] | TGI [6] [µM] | TGI [7] [µM] | TGI [8] [µM] | TGI [9] [µM] | TGI [10] [µM] | GI50 [1] [µM] | GI50 [2] [µM] | GI50 [3] [µM] | GI50 [4] [µM] | GI50 [5] [µM] | GI50 [6] [µM] | GI50 [7] [µM] | GI50 [8] [µM] | GI50 [9] [µM] | GI50 [10] [µM]
17 | S=c1[nH]n2c(CCCCCCCCc3nnc4sc(=S)[nH]n34)nnc2s1 | > 100 | > 100 | > 100 | > 100 | > 100 | > 100 | > 100 | > 100 | > 100 | > 100 |  |  |  |  |  |  |  |  |  | 
18 | CC(C)=CCC/C(C)=C/COc1c2ccoc2cc2oc(=O)ccc12 | 89.1 | > 100 | 79.7 | 55.5 | > 100 | > 100 | 82.6 | > 100 | 90.4 | > 100 |  |  |  |  |  |  |  |  |  | 
19 | COc1cc(OC)cc(-c2n/c(=C\c3c(O)[nH]c4ccc(OC)cc34)cc3c2=Nc2ccccc2-3)c1 | 4.18 | 6.64 | 3.51 | 3.84 | 75.8 | > 100 | 53.3 | 68.4 | 49.8 | 32.4 | 2.24 | 2.65 | 1.87 | 1.93 | 24.6 | > 100 | 25.8 | 25.2 | 23.3 | 12.1
20 | Cc1oc2c(c1C)S(=O)(=O)C(C#N)=C(N(C)C)N2 | > 100 | > 100 | > 100 | > 100 | > 100 | > 100 | > 100 | > 100 | > 100 | > 100 |  |  |  |  |  |  |  |  |  | 
21 | COC(=O)c1ccc(C)cc1CC1Cc2ccc(C)cc2C1=O (stereo not given) | 32.2 | 10.5 | 32.3 | 16.3 | 63 | > 100 | 59.5 | > 100 | 53.6 | 57.5 |  |  |  |  |  |  |  |  |  | 
22 | Cc1ccc(-c2nc(N/N=C/c3ccc(O)cc3)c3ccccc3n2)cc1 | 18.9 | > 100 | 30.8 | 65.7 | 26 | 31.8 | > 100 | > 100 | 15.4 | > 100 |  |  |  |  |  |  |  |  |  | 
23 | Cn1ncc2c(Cl)ncnc21 | > 100 | > 100 | > 100 | > 100 | > 100 | > 100 | > 100 | > 100 | > 100 | > 100 |  |  |  |  |  |  |  |  |  | 
24 | CN(C)c1ccc(/C=C(\NC(=O)c2ccccc2)C2=NC(CCC(=O)O)C(=O)O2)cc1 (stereo not given) | > 50 | > 50 | > 50 | > 50 | > 50 | > 50 | > 50 | > 50 | > 50 | > 50 |  |  |  |  |  |  |  |  |  | 
25 | Cc1csc2c1-n1cccc1C2=O | > 100 | > 100 | > 100 | > 100 | > 100 | > 100 | > 100 | > 100 | > 100 | > 100 |  |  |  |  |  |  |  |  |  | 
26 | NC1=Nc2cc(Cl)ccc2Sc2nc3ccccc3n21 | > 100 | > 100 | > 100 | > 100 | > 100 | > 100 | > 100 | > 100 | > 100 | > 100 |  |  |  |  |  |  |  |  |  | 
27 | CC(=O)Nc1ccc2[nH]c(C(=O)N3CC(CCl)c4c3cc([N+](=O)[O-])c3ccccc43)cc2c1 (stereo not given) | > 100 | > 45.8 | > 100 | > 100 | 9.92 | > 29.9 | > 65.1 | > 53 | > 100 | > 100 |  |  |  |  |  |  |  |  |  | 
28 | O=c1oc2ccccc2cc1-c1cn2c(n1)sc1ccccc12 | > 100 | > 100 | > 100 | > 100 | > 100 | > 100 | > 100 | > 100 | > 100 | > 100 |  |  |  |  |  |  |  |  |  | 
29 | O=C(CCC=C(S(=O)(=O)c1ccccc1)S(=O)(=O)c1ccccc1)c1ccccc1 | 20.9 | 80.4 | 21.7 | 15.6 | 44.4 | 31.1 | > 100 | 31 | 23.3 | 16.7 |  |  |  |  |  |  |  |  |  | 
30 | CC(C)(C)c1cc(OCc2nn3c(Cc4ccccc4)nnc3s2)c(Cl)cc1OCc1nn2c(Cc3ccccc3)nnc2s1 | > 100 | > 100 | > 100 | > 100 | > 100 | > 100 | > 100 | > 100 | 93.1 | > 100 |  |  |  |  |  |  |  |  |  | 
31 | COc1cc2c(c(O)c1OC)CC1CCC(=O)N1C2c1cccc2ccccc12 (stereo not given) | 33.8 | > 100 | 33.3 | 42.9 | 48.4 | 47.1 | > 100 | 59.3 | 61 | > 100 |  |  |  |  |  |  |  |  |  | 
